Measured values from patent US20240252506A1 (Hoffmann-La Roche Inc., priority 2021, published 2024).
In brackets after ≈: the same amount, converted by molar mass. Where a name gives a salt, the structure may show the parent alone.

The compounds below were run on Escherichia coli ATCC 25922 (assay: Minimal Inhibitory Concentration (MIC) determination, broth microdilution (CLSI M07-A10)). Conditions: Escherichia coli, ATCC25922, read-out: Escherichia coli growth inhibition MIC, strain Escherichia coli ATCC 25922, 18-24 hours at 35±2° C., lowest concentration for complete growth inhibition (no visible growth).
Format: cell-based
In short: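 Broth microdilution per CLSI M07-A10; compounds in 2-fold serial dilutions; inoculum from 0.5 McFarland suspension diluted 1:200 in broth. Incubated 18-24 h at 35±2° C in ambient air; MIC (μg/mL) taken as lowest concentration giving no visible growth.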

Row | Structure (SMILES) | MIC
1 | O=C1COc2ncc(N3CC4(CCN(CC5Cc6cc7nnn(C8CNC8)c7c(F)c6C5)CC4)OC3=O)nc2N1 (single isomer, unassigned) [Example 113, formic acid] | 0.125 mg/L (≈ 0.227 µM)

Same assay, conditions: Escherichia coli, ATCC25922, strain Escherichia coli ATCC 25922, 18-24 hours at 35±2° C., lowest concentration for complete growth inhibition (no visible growth), read-out: Escherichia coli growth inhibition MIC

Row | Structure (SMILES) | MIC
2 | C[C@H](O)[C@@H](N)c1nc2c(F)c3c(c(F)c2[nH]1)CC(CN1CCC2(CC1)CN(c1cnc4c(n1)NC(=O)CO4)C(=O)O2)C3 [Example 36, 6-[8-[[2-[(1S,2S)-1-amino-2-hydroxy-propyl]-4,8-difluoro-3,5,6,7-tetrahydrocyclopenta[f]benzimidazol-6-yl]methyl]-2-oxo-1-oxa-3,8-diazaspiro[4.5]decan-3-yl]-4H-pyrazino[2,3-b][1,4]oxazin-3-one] | 0.5 mg/L (≈ 0.855 µM)
3 | C[C@@H](N)c1nc2cc3c(c(F)c2[nH]1)CC(CN1CCC2(CC1)CN(c1cnc4c(n1)NC(=O)CO4)C(=O)O2)C3 (stereo partly drawn) [Example 45, 6-[8-[[2-[(1R)-1-aminoethyl]-8-fluoro-1,5,6,7-tetrahydrocyclopenta[f]benzimidazol-6-yl]methyl]-2-oxo-1-oxa-3,8-diazaspiro[4.5]decan-3-yl]-4H-pyrazino[2,3-b][1,4]oxazin-3-one] | 0.125 mg/L (≈ 0.233 µM)
4 | O=C(O)C(F)(F)F.O=C1COc2ncc(N3CC4(CCN(CC5Cc6c(c(F)c7[nH]c([C@@H]8CC(O)CCN8)nc7c6F)C5)CC4)OC3=O)nc2N1 (stereo partly drawn) [Example 28, 6-[8-[[4,8-difluoro-2-[(2S)-4-hydroxy-2-piperidyl]-3,5,6,7-tetrahydrocyclopenta[f]benzimidazol-6-yl]methyl]-2-oxo-1-oxa-3,8diazaspiro[4.5]decan-3-yl]-4H-pyrazino[2,3-b][1,4]oxazin-3-one; 2,2,2-trifluoroacetic acid] | 0.25 mg/L
5 | NCCn1c(=O)[nH]c2c(F)c3c(c(F)c21)CC(CN1CCC2(CC1)CN(c1cnc4c(n1)NC(=O)CO4)C(=O)O2)C3 (stereo not shown) [Example 44, 6-[8-[[1-(2-aminoethyl)-4,8-difluoro-2-oxo-3,5,6,7-tetrahydrocyclopenta[f]benzimidazol-6-yl]methyl]-2-oxo-1-oxa-3,8-diazaspiro[4.5]decan-3-yl]-4H-pyrazino[2,3-b][1,4]oxazin-3-one] | 0.25 mg/L (≈ 0.438 µM)
6 | CN(C)Cc1nc2c(F)c3c(c(F)c2[nH]1)CC(CNC1CC2(C1)CN(c1cnc4c(n1)NC(=O)CO4)C(=O)O2)C3 (stereo not shown) [Example 29, 6-[2-[[2-[(dimethylamino)methyl]-4,8-difluoro-3,5,6,7-tetrahydrocyclopenta[f]benzimidazol-6-yl]methylamino]-6-oxo-5-oxa-7-azaspiro[3.4]octan-7-yl]-4H-pyrazino[2,3-b][1,4]oxazin-3-one] | 0.5 mg/L (≈ 0.902 µM)
7 | N[C@H]1COC[C@@H]1c1nc2c(F)c3c(c(F)c2[nH]1)CC(CN1CCC2(CC1)CN(c1cnc4c(n1)NC(=O)CO4)C(=O)O2)C3 [Example 31, 6-[8-[[4,8-difluoro-2-[(3S,4R)-4-aminotetrahydrofuran-3-yl]-3,5,6,7-tetrahydrocyclopenta[f]benzimidazol-6-yl]methyl]-2-oxo-1-oxa-3,8-diazaspiro[4.5]decan-3-yl]-4H-pyrazino[2,3-b][1,4]oxazin-3-one] | 0.25 mg/L (≈ 0.419 µM)

Next, values leading:

Row | MIC | Structure (SMILES)
8 | 0.125 mg/L (≈ 0.22 µM) | O=C1COc2ncc(N3CC4(CCN(CC5Cc6c(c(F)c7c(nnn7C7CNC7)c6F)C5)CC4)OC3=O)nc2N1 (stereo not shown) [Example 80, 6-[8-[[1-(azetidin-3-yl)-4,8-difluoro-6,7-dihydro-5H-cyclopenta[f]benzotriazol-6-yl]methyl]-2-oxo-1-oxa-3,8-diazaspiro[4.5]decan-3-yl]-4H-pyrazino[2,3-b][1,4]oxazin-3-one]
9 | 8 mg/L (≈ 13.1 µM) | CC(=O)N(C)CCn1nnc2c(F)c3c(c(F)c21)CC(CN1CCC2(CC1)CN(c1cnc4c(n1)NC(=O)CO4)C(=O)O2)C3 (single isomer, unassigned) [Example 156, N-[2-[4,8-difluoro-6-[[2-oxo-3-(3-oxo-4H-pyrazino[2,3-b][1,4]oxazin-6-yl)-1-oxa-3,8-diazaspiro[4.5]decan-8-yl]methyl]-6,7-dihydro-5H-cyclopenta[f]benzotriazol-1-yl]ethyl]-N-methyl-acetamide]
10 | 0.25 mg/L (≈ 0.442 µM) | CN(C)CCc1nc2cc3c(c(F)c2o1)CC(CN1CCC2(CC1)CN(c1cnc4c(n1)NC(=O)CO4)C(=O)O2)C3 (stereo not shown) [Example 62, 6-[8-[[2-[2-(Dimethylamino)ethyl]-8-fluoro-6,7-dihydro-5H-cyclopenta[f][1,3]benzoxazol-6-yl]methyl]-2-oxo-1-oxa-3,8-diazaspiro[4.5]decan-3-yl]-4H-pyrazino[2,3-b][1,4]oxazin-3-one]
11 | 4 mg/L (≈ 6.87 µM) | O=C1COc2ncc(N3CC4(CC(NCC5Cc6c(c(F)c7[nH]c([C@H]8C[C@@H](O)CN8)nc7c6F)C5)C4)OC3=O)nc2N1 (stereo partly drawn) [Example 53, 6-[2-[[4,8-difluoro-2-[(2R,4R)-4-hydroxypyrrolidin-2-yl]-3,5,6,7-tetrahydrocyclopenta[f]benzimidazol-6-yl]methylamino]-6-oxo-5-oxa-7-azaspiro[3.4]octan-7-yl]-4H-pyrazino[2,3-b][1,4]oxazin-3-one]
12 | 1 mg/L (≈ 1.68 µM) | CNC(=O)CNCc1nc2c(F)c3c(cc2[nH]1)CC(CN1CCC2(CC1)CN(c1cnc4c(n1)NC(=O)CO4)C(=O)O2)C3 (stereo not shown) [Example 71, 2-[[8-fluoro-6-[[2-oxo-3-(3-oxo-4H-pyrazino[2,3-b][1,4]oxazin-6-yl)-1-oxa-3,8-diazaspiro[4.5]decan-8-yl]methyl]-3,5,6,7-tetrahydrocyclopenta[f]benzimidazol-2-yl]methylamino]-N-methyl-acetamide]

Same assay, conditions: strain Escherichia coli ATCC 25922, 18-24 hours at 35±2° C., lowest concentration for complete growth inhibition (no visible growth)

Row | Escherichia coli growth inhibition MIC | Structure (SMILES)
13 | 0.5 mg/L | O=C1COc2ccc(N3CC4(CCN(CC5Cc6cc7nc(C8CNC8)oc7c(F)c6C5)CC4)OC3=O)nc2N1 (single isomer, unassigned) [Example 112, 6-[8-[[2-(azetidin-3-yl)-8-fluoro-6,7-dihydro-5H-cyclopenta[f][1,3]benzoxazol-6-yl]methyl]-2-oxo-1-oxa-3,8-diazaspiro[4.5]decan-3-yl]-4H-pyrido[3,2-b][1,4]oxazin-3-one]
14 | 0.25 mg/L | O=C1COc2ncc(N3CC4(CCN(CC5Cc6cc7nc([C@H]8CCN8)oc7c(F)c6C5)CC4)OC3=O)nc2N1 (stereo partly drawn) [Example 140, 6-[8-[[2-[(2R)-azetidin-2-yl]-8-fluoro-6,7-dihydro-5H-cyclopenta[f][1,3]benzoxazol-6-yl]methyl]-2-oxo-1-oxa-3,8-diazaspiro[4.5]decan-3-yl]-4H-pyrazino[2,3-b][1,4]oxazin-3-one]

Same assay, conditions: strain Escherichia coli ATCC 25922, 18-24 hours at 35±2° C., lowest concentration for complete growth inhibition (no visible growth), dihydrochloride

Row | Structure (SMILES) | Escherichia coli growth inhibition MIC
15 | NCCn1nc2cc3c(c(F)c2n1)CC(CN1CCC2(CC1)CN(c1ccc4c(n1)NC(=O)CO4)C(=O)O2)C3 (single isomer, unassigned) [Example 132, 6-[2-oxo-8-[[2-(2-aminoethyl)-8-fluoro-6,7-dihydro-5H-cyclopenta[f]benzotriazol-6-yl]methyl]-1-oxa-3,8-diazaspiro[4.5]decan-3-yl]-4H-pyrido[3,2-b][1,4]oxazin-3-one dihydrochloride] | 0.25 mg/L
16 | NCCn1nc2cc3c(c(F)c2n1)CC(CN1CCC2(CC1)CN(c1cnc4c(n1)NC(=O)CO4)C(=O)O2)C3 (single isomer, unassigned) [Example 135, 6-[2-oxo-8-[[2-(2-aminoethyl)-8-fluoro-6,7-dihydro-5H-cyclopenta[f]benzotriazol-6-yl]methyl]-1-oxa-3,8-diazaspiro[4.5]decan-3-yl]-4H-pyrazino[2,3-b][1,4]oxazin-3-one dihydrochloride] | ≤0.06 mg/L
